Results on 83 molecules are retold here after article PMC12040169 (PLOS Biology, 2025).

This data set is described as follows: in vitro. Conditions: human, hela cells, % viability.

`CCCS(=O)(=O)NC1CCN(c2nc(C(F)(F)F)nc3[nH]cnc23)CC1` [CBK304587]: the viability – broadly, a read-out of living cells in per cent, often relative to untreated cells – at 28.5 h, 10 µM was determined as 105%.
The same measure for `CCS(=O)(=O)NC1CCN(c2nc(C(F)(F)F)nc3[nH]cnc23)CC1` [CBK304588]: 86.8%; for `CC(=O)Nc1cccc(-n2c(C)nnc2SCC2CCCCC2)c1` [CBK304590]: 86.3%; for `CCCS(=O)(=O)NC1CCN(c2nc(C(F)(F)F)nc3ccsc23)CC1` [CBK304591]: 87%.
With `CS(=O)(=O)N1CCc2cc(-c3csc(N)n3)ccc21` [CBK304596], the viability at 28.5 h, 10 µM worked out at 102%.
As for `CN(Cc1ccc(F)cc1F)C(=O)Cn1nc2n(c1=O)CCCCC2` [CBK304598], the viability at 28.5 h, 10 µM is 86.3%.
With `CC(=O)Nc1cccc(-n2nnnc2SC2CCCCC2=O)c1` (centres unmarked) [CBK304600], the viability at 28.5 h, 10 µM was found to be 95.4%.
For `COc1ccc(CNC(=O)c2cc(S(=O)(=O)N3CCCC3)c[nH]2)cc1` [CBK304601], the viability at 28.5 h, 10 µM was 102%.
Then `CC(C)n1nnnc1SCCC(=O)N1CCN(c2ccc(F)cc2)CC1` [CBK304602], with 95.5%; and `COC1(CNC(=O)c2cc3ccccc3[nH]2)CCSC1` (centres unmarked) [CBK304605], with 97.9%; and `Cn1ccnc1C1CCN(C(=O)NCc2cccc(F)c2)CC1` [CBK304606], with 91.3%.
The same measure for `COc1ccnc(N2CCN(C(=O)c3c4c(nn3C)CCCC4)CC2)n1` [CBK304609]: 118%; for `CCn1cc(Cl)c(C(=O)NC2CCN(c3nc(C)cc(=O)[nH]3)CC2)n1` [CBK304614]: 88.5%; for `Cc1cc(C(F)(F)F)nn1CC(=O)Nc1sc2c(c1C#N)CCC(C)C2` (centres unmarked) [CBK304619]: 92.1%.
`CCCOC1CCCN(C(=O)c2cncc(F)c2)C1` (centres unmarked) [CBK304623]: the viability at 28.5 h, 10 µM is 95%.
The same measure for `COCC1CCCN(Cc2ccc(Br)cc2)C1` (centres unmarked) [CBK304624]: 108%; for `COCCOc1ccc(C(=O)N2CCN(c3ccccc3)CC2)cc1` [CBK304626]: 106%.
The same measure for `O=C(NCCN1CCOCC1)C1CCN(C(=O)c2cccc(F)c2)CC1` [CBK304627]: 85.8%.
As for `COc1cccc(OCC(=O)NCC(c2ccsc2)N2CCCC2)c1` (centres unmarked) [CBK304630], the viability at 28.5 h, 10 µM was found to be 89.6%.
The same measure for `COCCN1CCC(CNC(=O)Nc2cc(C)ccc2F)C1` (centres unmarked) [CBK304631]: 117%; for `O=C(NCCOc1ccccc1F)C1CC(=O)N(Cc2ccccn2)C1` (centres unmarked) [CBK304632]: 104%.
The same measure for `O=C(NCC1CCCO1)C1CCN(C(=O)c2cccc(F)c2)CC1` (centres unmarked) [CBK304633]: 90.5%; for `CCCn1cc(C(=O)NCC2CCN(c3ccccc3F)C2)c(C)n1` (centres unmarked) [CBK304634]: 79%; for `Cn1cc(CCC(=O)N2CCc3[nH]c4ccc(Cl)cc4c3C2)cn1` [CBK304636]: 82%.
As to `O=C(CCCn1cccn1)N1CCOC(c2ccc(Cl)c(Cl)c2)C1` (centres unmarked) [CBK304640], the viability at 28.5 h, 10 µM is 98.5%.
The same measure for `O=C(CCCn1cccn1)N1CCCN(Cc2ccc(F)cc2)CC1` [CBK304641]: 99.7%.
Consider `O=C(NC1CCS(=O)(=O)C1)c1cnc2c(Cl)cccc2c1O` (centres unmarked) [CBK304644], for which the viability at 28.5 h, 10 µM came to 87.4%.
The same measure for `O=C(Nc1sc2c(c1C(=O)N1CCOCC1)CCCC2)c1cccs1` [CBK304649]: 92.9%; for `Cc1ccc(Cl)c(OC(C)C(=O)N2CCN(c3ccccn3)CC2)c1` (centres unmarked) [CBK304650]: 90.4%.
The same measure for `O=C(Cn1cnc2c(c1=O)CCCC2)Nc1ccc(Cl)c(Cl)c1` [CBK304655]: 102%.
The same measure for `CC(CNS(=O)(=O)c1ccc(N2CCCC2=O)cc1)Cn1cccn1` (centres unmarked) [CBK304656]: 87.7%.
Turning to `CC(=O)Nc1ccc(F)c(NC(=O)NCCC2CCCN2C)c1` (centres unmarked) [CBK304661], the viability at 28.5 h, 10 µM came to 101%.
The same measure for `CCCCC(=O)Nc1ccc(C(=O)N2CCN(C)CC2)cc1` [CBK304662]: 105%; for `COc1cccc(C(=O)NCCC(=O)N2CCN(C)CC2)c1` [CBK304663]: 95.4%; for `CCOC(=O)c1cc(S(=O)(=O)NC2CCN(C(=O)OCC)CC2)cn1C` [CBK304665]: 90.1%.
`CCOC(=O)N1CCC(NS(=O)(=O)c2ccc3c(c2)oc(=O)n3C)CC1` [CBK304666]: the viability at 28.5 h, 10 µM came out at 84.5%.
Then `CCOC(=O)N1CCN(S(=O)(=O)c2ccc3c(c2)oc(=O)n3C)CC1` [CBK304667], with 105%; and `Cc1nc(S(=O)(=O)N2CCC(OCC3CC3)C2)cn1C` (centres unmarked) [CBK304668], with 102%.
As for `CC1=CCN(C(=O)c2cccc(S(=O)(=O)NCC3CCCO3)c2)CC1` (centres unmarked) [CBK304669], the viability at 28.5 h, 10 µM amounted to 95.5%.
Consider `CCC(CO)NCc1ccc(OCC(N)=O)cc1` (centres unmarked) [CBK304670], for which the viability at 28.5 h, 10 µM worked out at 100%.
As for `Cc1ncsc1CCC(=O)NCC1CCN(c2ccccc2F)C1` (centres unmarked) [CBK304675], the viability at 28.5 h, 10 µM worked out at 96.5%.
The same measure for `O=C(c1csc(-c2ccccc2)n1)N1CCn2nc(C3CC3)cc2C1` [CBK304676]: 95.9%.
Then `Cc1cnccc1N1CCN(C(=O)CCCOc2ccccc2)CC1` [CBK304677], with 94.8%; and `Cc1cc(C)n(CCC(=O)N2CCCCC2C(=O)O)n1` (centres unmarked) [CBK304678], with 103%.
The same measure for `CCOC(=O)N1CCN(S(=O)(=O)c2ccc3[nH]c(=O)oc3c2)CC1` [CBK304679]: 105%; for `Cc1ccn(-c2ccc(N3CCNCC3)nn2)n1` [CBK304680]: 97.4%.
`CC(=O)N1CCc2c(sc(NC(=O)c3ccccc3C)c2C#N)C1` [CBK304681]: the viability at 28.5 h, 10 µM is 78.7%.
The same measure for `CC1CCc2c(sc(NC(=O)c3ccn(C)n3)c2C#N)C1` (centres unmarked) [CBK304682]: 89.8%; for `CC1(C(=O)NS(=O)(=O)c2cccc(-c3nnco3)c2)CC1` [CBK304683]: 106%; for `Cc1sc2ncn(CC(=O)NCCc3c[nH]cn3)c(=O)c2c1C` [CBK304685]: 99.3%.
Then `Cc1ccnc(SCC(=O)c2cc(C)n(C3CC3)c2C)n1` [CBK304686], with 97.6%; and `Cn1nccc1CN1CCOC(c2nc(C(C)(C)C)cs2)C1` (centres unmarked) [CBK304690], with 93.7%.
Take `Cc1cc(N2CCOC(c3cccs3)C2)ccn1` (centres unmarked) [CBK304691]: the viability at 28.5 h, 10 µM stood at 96.2%.
Regarding `CCN(CC)CCn1c(NC(=O)CCC2CCNC2)nc2ccccc21` (centres unmarked) [CBK304693], the viability at 28.5 h, 10 µM is 92.3%.
In the case of `Cc1cc(-c2csc(CC(C)n3cc(Cl)cn3)n2)on1` (centres unmarked) [CBK304700], the viability at 28.5 h, 10 µM was 91.3%.
In the case of `Cn1cc(CN2CCC(CNc3ccccn3)C2)cn1` (centres unmarked) [CBK304705], the viability at 28.5 h, 10 µM came out at 101%.
As for `Cc1nc(C)c(-c2csc(CC(C)n3cc(Cl)cn3)n2)o1` (centres unmarked) [CBK304710], the viability at 28.5 h, 10 µM amounted to 106%.
`CCOC(=O)c1nc(C2CCN(c3cccc(F)c3C#N)CC2)n[nH]1` [CBK304711]: the viability at 28.5 h, 10 µM was found to be 119%.
Then `CC1CC1c1nnc(C2(c3ccc(Br)cc3)CCOCC2)o1` (centres unmarked) [CBK304712], with 94.1%; and `Cn1nc(C(C)(C)C)c2cc(C(=O)N3CCCc4occc4C3)cnc21` [CBK304713], with 97.7%; and `COc1cc(CNC2CCCc3c2cnn3C)c(O)c(C(C)(C)C)c1` (centres unmarked) [CBK304716], with 84.4%.
Regarding `CCn1cc(S(=O)(=O)Nc2cccc(CCCC(=O)O)c2)cn1` [CBK304717], the viability at 28.5 h, 10 µM was 102%.
Then `CN(c1cccc(C#N)c1)C1CCN(c2nccn(C)c2=O)C1` (centres unmarked) [CBK304718], with 105%; and `COc1ccc(CC(=O)N2CCCC2c2nnc3ccccn23)cc1` (centres unmarked) [CBK304719], with 117%; and `CN(c1cccc(C#N)c1)C1CCN(c2ncnc3c2cnn3C)C1` (centres unmarked) [CBK304720], with 87.4%.
Take `COc1cc(CNCc2cnn(C)c2)c(O)c(C(C)(C)C)c1` [CBK304721]: the viability at 28.5 h, 10 µM was 85.8%.
Take `CCOCC(=O)N(C)C(CO)c1cc(OC)ccc1Br` (centres unmarked) [CBK304722]: the viability at 28.5 h, 10 µM worked out at 90%.
For `Fc1cc(Br)c(CNCc2ccno2)c(N2CCCCC2)c1F` [CBK304723], the viability at 28.5 h, 10 µM stood at 86.8%.
Take `Nc1nc(O)cc(C2CCN(CCOc3ccccc3F)C2)n1` (centres unmarked) [CBK304726]: the viability at 28.5 h, 10 µM is 102%.
As to `CCc1ccc2c(c1)C(CCNC(=O)c1ncccc1F)C(=O)N2` (centres unmarked) [CBK304727], the viability at 28.5 h, 10 µM is 106%.
Then `CCc1ccc2c(c1)C(CCNC(=O)c1cscc1C(F)(F)F)C(=O)N2` (centres unmarked) [CBK304728], with 82.5%.
For the molecule `O=S(=O)(c1sccc1F)N1CCOCC1c1cccc(F)c1` (centres unmarked) [CBK304730], the viability at 28.5 h, 10 µM was determined as 82.6%.
For the molecule `N#Cc1cnccc1N1CC2COCCC2(C(=O)N2CCCC2)C1` (centres unmarked) [CBK304731], the viability at 28.5 h, 10 µM is 83%.
Turning to `CC(C)n1cc(CN2CCNC(=O)C2c2ccccc2C(F)(F)F)nn1` (centres unmarked) [CBK304732], the viability at 28.5 h, 10 µM was 91.6%.
The same measure for `Cc1c(C(=O)N2CCC(CN)C2)nnn1-c1ccc2ncccc2c1` (centres unmarked) [CBK304734]: 101%.
The same measure for `CC1CN(Cc2cccc(CNc3nccnc3C#N)c2)CCO1` (centres unmarked) [CBK304736]: 94%; for `COCc1nc2n(n1)CC(NC1CCc3ccccc3CC1)CC2` (centres unmarked) [CBK304737]: 96.1%.
For `Cc1c(C(=O)N(CC(=O)O)C2CC2)nnn1-c1ccc(Cl)cc1F` [CBK304738], the viability at 28.5 h, 10 µM worked out at 91.1%.
Then `CC(C)(C#N)c1ccccc1CN1CCCCC1c1[nH]ncc1C(N)=O` (centres unmarked) [CBK304740], with 108%; and `CC1=CCCN(C(=O)C23CCOCC2CN(c2ncccn2)C3)C1` (centres unmarked) [CBK304743], with 101%.
Take `N#Cc1cccnc1N1CC2COCCC2(C(=O)N2CCC=C(F)C2)C1` (centres unmarked) [CBK304744]: the viability at 28.5 h, 10 µM turned out to be 91.5%.
The same measure for `NC1CCCN(C(=O)c2ccc(Oc3cccc(Br)c3)nc2)C1` (centres unmarked) [CBK304747]: 92.6%; for `Cc1csc(N2CCC(NC3COc4ccc(F)cc4C3)CC2)n1` (centres unmarked) [CBK304751]: 101%.
